# According to patent US20030129189A1, “Tumor necrosis factor-gamma” (priority 1994, published 2003):
# Key:
# [1] = tested on: A-431; experiment: TNF-gamma activity on A-431 cells; format: cell-based; set-up: key: The numbers of “+” indicate the relative level of activities.; ++: The numbers of “+” indicate the relative level of activities.; +++: The numbers of “+” indicate the relative level of activities.; “−” indicates no detected activity at the concentration range tested; conditions: A-431, human epidermoid carcinoma
# [2] = tested on: Jurkat; experiment: TNF-gamma activity on Jurkat cells; format: cell-based; set-up: key: The numbers of “+” indicate the relative level of activities.; ++: The numbers of “+” indicate the relative level of activities.; +++: The numbers of “+” indicate the relative level of activities.; “−” indicates no detected activity at the concentration range tested; conditions: human T-cell lymphoma
# Procedure: The adherent target cells were prepared from confluent cultures by trypsinization in PBS, and non-adherent target cells were harvested from stationary cultures and washed once with medium. Target cells were suspended at 3×10^5 cells/ml in medium containing 10% FCS. 0.1 ml aliquots were dispensed into 96-well flat-bottomed microtiter plates containing 0.1 ml serially diluted test samples of cells (WEHI 164 and L929). Incubation was continued for 70 hours. TNF-alpha, TNF-beta and bacterially-produced TNF-gamma were added at a 0.5 μg/ml concentration. The cytotoxicity and proliferation activity was quantified using an MTS assay performed by the addition of 20 μl of MTS and phenazine methosulfate (PMS) solution to each well. After a three hour incubation, the OD at 492 nm was measured by an ELISA plate reader. The OD492 is proportional to the number of viable cells in the wells. The percent of cytotoxicity was calculated as follows: […]. The photographs were taken after 72 hours.
# [3] = tested on: NF-kappaB p65 DNA-binding in U-937 cells; experiment: NF-kappaB activation (EMSA); format: cell-based
# Description: Activation of cellular NF-kappaB is preceded by the phosphorylation, ubiquitination, and ultimate degradation of an endogenous NF-kappaB inhibitor molecule designated IkBa. Degradation of the inhibitor allows the p65 subunit of NF-kappaB to translocate to the nucleus where it can act as a transcriptional regulator. For this reason, a electrophoretic mobility shift analysis (EMSA) is an appropriate method for analyzing activation of cellular NF-kappaB by treatment of cultured cells with TNF-gamma.
# In these analyses cells (2×10^6 per ml) were treated with different concentrations (0.1-1.0 μg/ml) of bacterially-produced TNF-gamma at 37° C. for 12 hours. Nuclear extracts were then prepared from the cultured cells and EMSA was performed as is well-known in the art and essentially as described (Singh, S. and Aggarwal, B. B. J. Biol. Chem. 270:10631-10636 (1995)).
# [4] = tested on: WEHI 164 cells; experiment: Measurement of apoptosis (nucleosome ELISA); format: cell-based, mouse; conditions: increasing amounts (FIG. 12)
# Procedure: In a first incubation step, anti-histone antibody was fixed adsorptively on the wall of a microtiter plate module. Subsequently, non-specific binding sites on the wall were saturated by treatment with incubation buffer (e.g., blocking solution). During the second incubation step, the nucleosomes contained in the WEHI 164 cell sample treated with the TNF-alpha, TNF-beta or bacterially-produced TNF-gamma were bound via their histone components to the immobilized anti-histone antibody. In the third incubation step, anti-DNA-peroxidase (POD) reacted with the DNA component of the nucleosomes. After removal of all unbound peroxidase conjugate by a washing step, the amount of peroxidase retained in the immunocomplex was determined spectrophotometrically using the substrate ABTS (2,2′-azino-di-[3-ethylbenzthiazoline sulfonate]). Anti-histone antibody reacted with the histones H1, H2A, H2B, H3, and H4 from the sample. Anti-DNA POD antibody bound to single- and double-stranded DNA. Therefore, the ELISA allowed the detection of mono- and oligonucleosomes and may be applied to measure apoptotic cell death. The level of cell death was measured by the amount of cytoplasmic histone-associated DNA fragments which was indicated by the ratio of the absorbances observed at 405 and 490 nm (A405/A490). […]
# [5] = tested on: MC-38 murine colon cancer; experiment: In vivo tumorigenicity assay, syngeneic MC-38 colon cancer; set-up: species or system C57BL6/6 mice; conditions: local production by transfected MCA 38 cells, 1×10^6 cells/mouse
# Procedure: [The full-length TNF-gamma and extracellular domain of DR3 was cloned into pcDNA3 expression vector and transfected to MCA 38 cells, respectively. After selection and cloning, three clones from each constructs were picked for tumorigenicity study. MCA 38 cells (1×10^6 cells/mouse) expressing TNF-gamma or DR3 extracellular domain were injected into C57BL6/6 mice. The tumor size was assessed by measuring perpendicular diameters with a caliper and calculated by multiplying the measurements of diameters in two dimensions. Data are represented as the mean +/−SD of 6 mice in each group.] It is clear that most immune cells and cancer cells can express more than one TNF receptor (even more than one death receptor) and ligand superfamily member. […] Moreover, the expression of these ligands and receptors may differ at the level of individual cell types within tissues and the expression level on the same cell type may also differ.
# The full length TNF-gamma and extracellular domain of DR3 was cloned into pcDNA3 expression vector (Invitrogen, Carlsbad, Calif.) and transfected to MCA 38 cells, respectively. […] Mice then were randomized and tumors were measured twice weekly. The tumor size was assessed by measuring perpendicular diameters with a caliper and calculated by multiplying the measurements of diameters in two dimensions. […]
substance,measurement,setting,value
TNF-gamma: new member of the tumor necrosis factor family; the term refers to TNF-gamma-alpha and/or TNF-gamma-beta,Adhesion,[1],−−
same,Differentiation,[1],−−
same,Proliferation,[1],−
same,Adhesion,[2],−−
same,Differentiation,[2],−−
same,Proliferation,[2],−
same,concentration giving peak activation of DNA-binding by p65,[3]; 12 hours,1 µg/mL
same,lowest concentration giving an observable increase in p65 DNA-binding,[3]; 12 hours,0.2 µg/mL
same,time span of p65 DNA-binding activation over basal levels,[3]; after initiation of treatment,from 30 minutes to 18 hours
same,"apoptosis (cytoplasmic histone-associated DNA fragments, A405/A490)",[4],increasingly high levels of apoptosis
same,tumor growth,[5],caused complete tumor suppression
